Test results: patent US7205301B2, “Microbiocidal N-phenyl-n-[4-(4-pyridyl)-2-pyrimidin-2-yl]-amine derivatives” (Syngenta Crop Protection, Inc., priority 2001, dated 2007)

Tests used:
Format in all cases: in vivo
[1] = test system: Botrytis cinerea; assay: Example B-7: Botrytis cinerea / grape (Botrytis on grapes); settings: 72 h, 0.02% active substance, spray, grape seedlings cv. Gutedel, inoculated two days after application, assessed after 3 days incubation, read-out: control of the fungal infection
Description: Botrytis cinerea/Grape (Botrytis on Grapes) 5 week old grape seedlings cv. Gutedel are treated with the formulated test compound (0.02% active substance) in a spray chamber. Two days after application grape plants are inoculated by spraying a spore suspension (1.5×10^5 conidia/ml) on the test plants. After an incubation period of 3 days at +21° C. and 95% r. h. in a greenhouse the disease incidence is assessed.

[2] = test system: Pyrenophora teres (Helminthosorium); assay: Example B-10: effect against Pyrenophora teres (Helminthosorium) / barley (net blotch on barley); settings: 48 h, 0.02% active substance, spray, barley cv. Regina, inoculated two days after application, assessed after 2 days incubation, read-out: control of the fungal infection
Description: Effect Against Pyrenophora teres (Helminthosorium)/Barley (Net Blotch on Barley) 1 week old barley plants cv. Regina are treated with a formulated test compound (0.02% active substance) in a spray chamber. Two days. after application barley plants are inoculated by spraying a spore suspension (3×10^4 conidia/ml) on the test plants. After an incubation period of 2 days at +20° C. and 95% r.h. the disease incidence is assessed.

[3] = test system: Septoria nodorum; assay: Example B-12: effect against Septoria nodorum / wheat (Septoria leaf spot on wheat); settings: Parastagonospora nodorum, 192 h; 0.02% active substance, spray; wheat cv. Arina; inoculated one day after application; assessed 8 days after inoculation; read-out: control of the fungal infection
Description: Effect Against Septoria nodorum/Wheat (Septoria Leaf Spot on Wheat) 1 week old wheat plants cv. Arina are treated with a formulated test compound (0.02% active substance) in a spray chamber. One day after application wheat plants are inoculated by spraying a spore suspension (6×10^5 conidia/ml) on the test plants. After an incubation period of 1 day at +22° C. and 95% r.h. plants are kept for 7 days at +22° C. and 60% r.h. in a greenhouse. The disease incidence is assessed 8 days after inoculation.

[4] = test system: Botrytis cinerea; assay: Example B-8: effect against Botrytis cinerea / tomato (Botrytis on tomatoes); settings: 96 h, 0.02% active substance, spray, tomato cv. Roter Gnom, inoculated two days after application, assessed after 4 days incubation, read-out: control of the fungal infection
Description: Effect Against Botrytis cinerea/Tomato (Botrytis on Tomatoes) 4 week old tomato plants cv. Roter Gnom are treated with the formulated test compound 0.02% active substance) in a spray chamber. Two days after application tomato plants are inoculated by spraying a spore suspension (1×10^5 conidia/ml) on the test plants. After an incubation period of 4 days at +20° C. and 95% r. h. in a greenhouse the disease incidence is assessed.

Row | Structure (SMILES) | pest or weed control at 0.02 % strength [1] | pest or weed control at 0.02 % strength [2] | pest or weed control at 0.02 % strength [3] | pest or weed control at 0.02 % strength [4]
1 | COCc1cc(OC)n(-c2cc(-c3ccnc(Nc4cccc(Cl)c4)n3)ccn2)n1 [3.014/028, (3-Chloro-phenyl)-{4-[2-(5-methoxy-3-methoxymethyl-pyrazol-1-yl)-pyridin-4-yl]-pyrimidin-2-yl}-amine] | > 70% | > 70% |  | 
2 | Cc1cc(=O)n(-c2cc(-c3ccnc(Nc4cccc(Cl)c4)n3)ccn2)n1C [2.03/028, 2-{4-[2-(3-Chloro-phenylamino)-pyrimidin-4-yl]-pyridin-2-yl}-1,5-dimethyl-1,2-dihydro-pyrazol-3-one] | > 70% | > 70% | > 70% | 
3 | COCc1c(C)c(=O)n(-c2cc(-c3ccnc(Nc4cccc(Cl)c4)n3)ccn2)n1C [2.09/028, 2-{4-[2-(3-Chloro-phenylamino)-pyrimidin-4-yl]-pyridin-2-yl}-5-methoxymethyl-1,4-dimethyl-1,2-dihydro-pyrazol-3-one] | > 70% | > 70% | > 70% | 
4 | CC1=NN(c2cc(-c3ccnc(Nc4cccc(Cl)c4)n3)ccn2)C(=O)C12CC2 [1.04/028, 5-{4-[2-(3-Chloro-phenylamino)-pyrimidin-4-yl]-pyridin-2-yl}-7-methyl-5,6-diaza-spiro[2.4]hept-6-en-4-one] | > 70% | > 70% |  | > 70%
5 | CC1(C)C=NN(c2cc(-c3ccnc(Nc4cccc(Cl)c4)n3)ccn2)C1=O [1.07/028, 2-{4-[2-(3-Chloro-phenylamino)-pyrimidin-4-yl]-pyridin-2-yl}-4,4-dimethyl-2,4-dihydro-pyrazol-3-one] | > 70% | > 70% | > 70% | 
6 | COCc1cc(=O)n(-c2cc(-c3ccnc(Nc4cccc(Cl)c4)n3)ccn2)n1C [2.011/028, 2-{4-[2-(3-Chloro-phenylamino)-pyrimidin-4-yl]-pyridin-2-yl}-5-methoxymethyl-1-methyl-1,2-dihydro-pyrazol-3-one] |  | > 70% |  | 
7 | CC1=NN(c2cc(-c3ccnc(Nc4cccc(Cl)c4)n3)ccn2)C(=S)C1(C)C [1.06/028, 2-{4-[2-(3-Chloro-phenylamino)-pyrimidin-4-yl]-pyridin-2-yl}-4,4,5-trimethyl-2,4-dihydro-pyrazole-3-thione] | > 70% | > 70% | > 70% | > 70%
8 | Cc1nn(-c2cc(-c3ccnc(Nc4cccc(Cl)c4)n3)ccn2)c(C)c1C [3.017/028, (3-Chloro-phenyl)-{4-[2-(3,4,5-trimethyl-pyrazol-1-yl)-pyridin-4-yl]-pyrimidin-2-yl}-amine] |  | > 70% |  | 
9 | CCC1(C)C(=O)N(c2cc(-c3ccnc(Nc4cccc(Cl)c4)n3)ccn2)N=C1C (stereo not shown) [1.03/028, 2-{4-[2-(3-Chloro-phenylamino)-pyrimidin-4-yl]-pyridin-2-yl}-4-ethyl-4,5-dimethyl-2,4-dihydro-pyrazol-3-one] | > 70% | > 70% | > 70% | 
10 | Cc1c(C)n(C)n(-c2cc(-c3ccnc(Nc4cccc(Cl)c4)n3)ccn2)c1=O [2.02/028, 2-{4-[2-(3-Chloro-phenylamino)-pyrimidin-4-yl]-pyridin-2-yl}-1,4,5-trimethyl-1,2-dihydro-pyrazol-3-one] |  | > 70% | > 70% | > 70%
11 | Cc1c(C=O)c(=O)n(-c2cc(-c3ccnc(Nc4cccc(Cl)c4)n3)ccn2)n1C [2.04/028, 2-{4-[2-(3-Chloro-phenylamino)-pyrimidin-4-yl]-pyridin-2-yl}-1,5-dimethyl-3-oxo-2,3-dihydro-1H-pyrazole-4-carbaldehyde] |  |  | > 70% | 
12 | COc1cc(C)nn1-c1cc(-c2ccnc(Nc3cccc(Cl)c3)n2)ccn1 [3.01/028, (3-Chloro-phenyl)-{4-[2-(5-methoxy-3-methyl-pyrazol-1-yl)-pyridin-4-yl]-pyrimidin-2-yl}-amine] |  | > 70% | > 70% | > 70%
13 | CCn1c(C)c(C)c(=O)n1-c1cc(-c2ccnc(Nc3cccc(Cl)c3)c2)ccn1 [2.06/028, 2-{4-[2-(3-Chloro-phenylamino)-pyridin-4-yl]-pyridin-2-yl}-1-ethyl-4,5-dimethyl-1,2-dihydro-pyrazol-3-one] |  |  | > 70% | > 70%
14 | COCN(c1cccc(Cl)c1)c1nccc(-c2ccnc(-n3c(=O)cc(C)n3C)c2)n1 [2.08/048, 2-(4-{2-[(3-Chloro-phenyl)-methoxymethyl-amino]-pyrimidin-4-yl}-pyridin-2-yl)-1,5-dimethyl-1,2-dihydro-pyrazol-3-one] | > 70% | > 70% |  | > 70%
15 | CC1=NN(c2cc(-c3ccnc(Nc4cccc(Cl)c4)n3)ccn2)C(=O)C1(C)C [1.01/028, 2-{4-[2-(3-Chloro-phenylamino)-pyrimidin-4-yl]-pyridin-2-yl}-4,4,5-trimethyl-2,4-dihydro-pyrazol-3-one] | > 70% | > 70% | > 70% | > 70%
16 | COCc1nn(-c2cc(-c3ccnc(Nc4cccc(Cl)c4)n3)ccn2)c(OC)c1C [3.013/028, (3-Chloro-phenyl)-{4-[2-(5-methoxy-3-methoxymethyl-4-methyl-pyrazol-1-yl)-pyridin-4-yl]-pyrimidin-2-yl}-amine] | > 70% | > 70% |  | 
17 | COCC1=NN(c2cc(-c3ccnc(Nc4cccc(Cl)c4)n3)ccn2)C(=O)C1(C)C [1.08/028, 2-{4-[2-(3-Chloro-phenylamino)-pyrimidin-4-yl]-pyridin-2-yl}-5-methoxymethyl-4,4-dimethyl-2,4-dihydro-pyrazol-3-one] |  | > 70% |  | 
18 | Cc1cn(C)n(-c2cc(-c3ccnc(Nc4cccc(Cl)c4)c3)ccn2)c1=O [2.05/028, 2-{4-[2-(3-Chloro-phenylamino)-pyridin-4-yl]-pyridin-2-yl}-1,4-dimethyl-1,2-dihydro-pyrazol-3-one] | > 70% | > 70% | > 70% | > 70%
19 | COc1c(C)cnn1-c1cc(-c2ccnc(Nc3cccc(Cl)c3)n2)ccn1 [3.012/028, (3-Chloro-phenyl)-{4-[2-(5-methoxy-4-methyl-pyrazol-1-yl)-pyridin-4-yl]-pyrimidin-2-yl}-amine] | > 70% | > 70% | > 70% | 
